The source of these data is article PMC12082688, “Temporal Distribution of Imidacloprid and Its Metabolites in Laying Hens: An Evaluation of the Potential Impact on Food Safety” (Journal of Agricultural and Food Chemistry, 2025).

A short description of series [1]: Plasma concentration versus time profile after a single oral gavage dose, LC-MS/MS. Type of series: in vivo, Hy-line brown hens. Conditions: for time until plasma concentration below the limit of quantitation: 1 mg/kg single oral gavage, LOQ 0.5 ng/mL; for Tmax: female, Hy-line brown, in vivo. As for the experimental part:
(§1) Seventy-five, 61-week-old, Hy-line brown hens weighing 1.6–2.4 kg were housed in individual, 22” × 24” × 16” cages with nest box curtains and scratch pads, on two levels. Hens were acclimatized for 1 week on a 16-h light:8-h dark cycle. A wall exhaust fan maintained the temperature between 17–19 °C. A standard layer diet containing corn and soybean meal, 4.9% calcium and 16.5% protein was available ad libitum (Webberville Feed & Grain Co., Webberville, MI, USA). Water was available ad libitum. Hens were weighed and randomly assigned to one of three treatment groups (n = 5 hens/group) that received imidacloprid at 1 and 10% of a reported LD50 for chickens corresponding to 1 and 10 mg/kg of IMI or a placebo treatment (Lafeber Nutristart 1:3 in water; Lafeber Co., Cornell, Il, USA).[14] Birds were fasted overnight. Prior to gavage, crops were palpated to ensure that they were empty.
(§2) Analytical grade (active) imidacloprid powder (ChemService, West Chester, PA, USA) was dissolved in ethanol (10% v/v), mixed with corn oil, and then further dissolved in Lafeber Nutristart (1:3 in water; Lafeber Co., Cornell, Il, USA) to obtain final concentrations of 0.8 or 0.08 mg/mL.[8],[14] Treatments were prepared on the morning of administration, protected from light, kept on ice, and mixed thoroughly prior to administration. The concentrations and purity of IMI were verified before the start of the trial. IMI was administered by oral gavage using a 60-cc syringe and a 10 Fr × 16 in. red rubber urethral feeding catheter. After each administration, the catheter was flushed with 5 mL of water. Birds received a similar volume of treatment or placebo (20–30 mL).
(§3) Approximately 2–3 mL of blood was sampled from the brachial vein at 1, 2, 4, 24, 48, and 168 h postexposure, transferred into 2 mL EDTA tubes, sat at room temperature for 1–2 h, centrifuged at 1200g for 10 min, plasma was transferred into microcentrifuge tubes, and samples were kept at 4 °C until analysis within 1 week of study completion. Birds were humanely euthanized by cervical dislocation (n = 5 hens/treatment/time point). At 1, 4, 24, 48, and 168 h postexposure, approximately 1.0 g from the left pectoralis major, left quadriceps, left liver lobe, coelomic fat pad, spleen, right cranial and middle kidney lobes, and brain (cerebrum, optic lobes, cerebellum, brainstem) were collected, placed in Whirl-Pak sample bags (Nasco Sampling LLC, Madison, WI, USA), and kept at −20 °C until analysis. Whole eggs that were spontaneously laid or near completion in the shell gland were collected at 24 (n = 27), 48 (n = 24), 72 (n = 13), and 168 h (n = 12) after treatment and cracked in half, and yolk and albumen were kept in screw top specimen containers at −20 °C until analysis. […] Doses and time points were based on similar studies done in chickens[8] and Japanese Quail.[7] All animal procedures were approved by the Institutional Animal Care and Use Committee (IACUC) at MSU no. PROTO202300371.
Neonicotinoids were extracted from 200 μL of plasma, which was added to a test tube with […] of 0.5 ng/mL ISTD in acetonitrile. The mixture was vortexed for 40 s until well-mixed and then centrifuged for 5 min at 3000g. The supernatant was removed and filtered through a 0.2 μm PTFE membrane filter into an autosampler vial for LC-MS/MS analysis.
Analysis was performed with a liquid chromatographic-tandem mass spectrometer, an AB Sciex 6500+ ESI-MS/MS (SCIEX, Framingham, MA, USA) interfaced to a Shimadzu LC (Shimadzu Corp, Kyoto, Japan). Chromatography was achieved using the Kinetex F5:2.6 μm (100 mm × 3 mm) column (Phenomenex, Torrance, CA, USA). The column temperature was maintained at 40 °C with a column heater. Injection volume was 10 μL. The mobile phase consisted of 0.1% formic acid in Milli-Q water (mobile phase A) and 0.1% formic acid in acetonitrile (mobile phase B) at a flow rate of 0.5 mL/min. […]

Series [2] can be described thus: Distribution of IMI and metabolites in tissues, eggs and feces after a single oral gavage dose, LC-MS/MS. Particulars: for metabolite abundance in tissues: 1 and 10 mg/kg IMI single oral gavage, all sampled tissues; for metabolite concentrations in eggs versus regulatory thresholds: eggs within 24 h postexposure to IMI. Type of series: in vivo. As for the experimental part:
as §1, §2, §3
Tissues were prepared for analysis by sectioning 0.5 g of homogeneous tissue (free of connective and vascular tissue) and placing it in a 7 mL Precellys bead tissue homogenization tube. Egg yolk and albumin from individual eggs were homogenized with an Omni International (Kennesaw, GA, USA) 125/TM125-11 hand-held homogenizer with a stainless steel 7 mm generator probe. Similar to tissues, 0.5 g of egg homogenate was placed in a 7 mL Precellys bead tissue homogenization tube. Two milliliters of acetonitrile containing 1 ng/mL of ISTD was added. Tissues were homogenized at room temperature with a Precellys Evolution Homogenizer (Bertin Technologies, Montigny-Le-Bretonneux, France): Speed–4500g, Cycle 2 × 20 s with a 20 s pause between cycles. The homogenized tissues and egg were centrifuged at 5400g for 10 min to pellet solid material at the bottom of the tube. 250 μL of the clear top layer from each tube was transferred to an autosampler vial for LC-MS/MS analysis. […]

The conditions of series [3]: cited from earlier work.
A short description of series [4]: IMI equivalents (sum of IMI and 6-chloropyridinyl moiety metabolites) in poultry products versus CFR/EFSA tolerance. More on the design: species or system Hy-line brown hens. Conditions: in vivo.
Text: The specific absorption, distribution, metabolism, and excretion profile of IMI in laying hens and the presence of IMI and its metabolites in eggs are unknown. Therefore, the primary goal of this study was to evaluate food safety in the context of IMI’s temporal distribution and metabolite profile. To achieve this, IMI and its 6-chloropyridinyl moiety-containing metabolites (IMI-urea, IMI-olefin, desnitro-IMI, 5-OH-IMI, and 6-chloronicotinic acid) were quantitatively measured in blood, tissue, feces, and eggs following a single subclinical dose over time. These concentrations were measured using a liquid chromatography tandem mass spectrometry (LC-MS/MS) method and compared with tolerances established in the Code of Federal Regulations (CFR) and Article 12 of the European Food Safety Authority (EFSA) Regulation No 396/2005.[12],[13]
as §3
Tissues were prepared for analysis by sectioning 0.5 g of homogeneous tissue (free of connective and vascular tissue) and placing it in a 7 mL Precellys bead tissue homogenization tube. Egg yolk and albumin from individual eggs were homogenized with an Omni International (Kennesaw, GA, USA) 125/TM125-11 hand-held homogenizer with a stainless steel 7 mm generator probe. Similar to tissues, 0.5 g of egg homogenate was placed in a 7 mL Precellys bead tissue homogenization tube. Two milliliters of acetonitrile containing 1 ng/mL of ISTD was added. […]

The test system of the next series is laying hens. As to the kind of experiment: Response to treatment: clinical monitoring, post-mortem examination and daily egg production. The class given is in vivo. Conditions: 1 or 10 mg/kg single oral gavage. As for the experimental part: as §1
Analytical grade (active) imidacloprid powder (ChemService, West Chester, PA, USA) was dissolved in ethanol (10% v/v), mixed with corn oil, and then further dissolved in Lafeber Nutristart (1:3 in water; Lafeber Co., Cornell, Il, USA) to obtain final concentrations of 0.8 or 0.08 mg/mL.[8],[14] Treatments were prepared on the morning of administration, protected from light, kept on ice, and mixed thoroughly prior to administration. […]
Birds were closely monitored postgavage for any adverse reactions. […]

The next series relates to birds. More on the design: method as in PMID 32274821. Conditions: cited from earlier work.
A further series concerns layers. Particulars: cited from earlier work.
Another series has as its system chickens. Conditions: in vivo; cited from earlier work.
For series [5] the following is noted: in vivo; cited from earlier work.
For series [6] the following is noted: in vivo, po; cited from earlier work.
Setting [7] is: 10 mg/kg single oral gavage, read-out: time of peak concentration in plasma.
Where [8] appears, read: domestic chickens, 15 days after the last exposure following daily exposure for 7 days.

Entries after “also recorded” stand apart in the source; their conditions may differ. Like-named read-outs stand apart in the source and are kept apart here. A value given as a limit tells only on which side of the number the result lay.

With `O=C1NCCN1Cc1ccc(Cl)nc1` [IMI-urea, imidacloprid urea], the “time of peak concentration in plasma” value in [1] (10 mg/kg single oral gavage) is 4 h. Besides, the “presence of metabolite in sample types” value in [2] (10 mg/kg IMI single oral gavage) was “present in the 10 mg/kg treatment group for all sample types except in the liver”. Moreover, in [2], the “metabolite abundance in tissues” value is on record as “equally abundant in kidney with 5-OH-IMI” and the “metabolite concentrations in eggs versus regulatory thresholds” value was “exceeding current regulatory thresholds”.

For `O=[N+]([O-])/N=C1\NCC(O)N1Cc1ccc(Cl)nc1` (stereo not shown) [5-OH-IMI, 5-hydroxyimidacloprid], the “time until plasma concentration below the limit of quantitation” value in series [1] is recorded as no more than 24 h. Besides, the Tmax in series [1] (setting [7]) was found to be 4 h. In addition, in series [2], the “metabolite abundance in tissues” value was “metabolized predominantly to 5-OH-IMI” and the “metabolite concentrations in eggs versus regulatory thresholds” value is “exceeding current regulatory thresholds”. Also, the “presence in feces, liver, muscle, spleen, kidney and brain” value (“presence in feces, liver, muscle, spleen” for short) in series [3] (setting [8]) is reported as “detected”.

As for `N=C1NCCN1Cc1ccc(Cl)nc1` [desnitro-IMI, desnitro imidacloprid], the Tmax in series [1] (setting [7]) was found to be 4 h.

On to `O=C(O)c1ccc(O)nc1` [6-OH-NA, 6-hydroxy nicotinic acid], for which the “presence in fecal matter” value in [2] (feces collected after IMI single oral gavage) was “evidence in fecal matter for the formation; also recorded: presence of 6-OH-NA in fecal matter collected at 24 and 48 h post treatment”.

Regarding `O=[N+]([O-])Nc1nccn1Cc1ccc(Cl)nc1` [IMI-olefin, imidacloprid-olefin], the “time until plasma concentration below the limit of quantitation” value in series [1] was no more than 24 h. In addition, the “time of peak concentration in plasma” value in series [1] (10 mg/kg single oral gavage) is given as 4 h. In series [2], the “metabolite abundance in tissues” value was “more abundant metabolite observed in most tissues except in the kidney where it was notably absent” and the “metabolite concentrations in eggs versus regulatory thresholds” value is “exceeding current regulatory thresholds”. The “presence in feces, liver, muscle, spleen” value in [3] (setting [8]) was “detected”.

For the molecule `O=[N+]([O-])NC1=NCCN1Cc1ccc(Cl)nc1` [IMI], the Tmax in [1] (po, 1 mg/kg) was no more than 1 h. In addition, the Tmax in series [1] (po, 10 mg/kg) was determined as 4 h. In series [4], the “IMI equivalents in adipose tissue versus 50 ppb (50 ng/g) threshold” value is on record as “no animal exceeded”; the “IMI equivalents in brain, liver, spleen and kidney versus threshold (50 ng/g)” value is given as “surpassed the threshold for most animals”; the “IMI equivalents in liver and spleen versus threshold (50 ng/g)” value is “remained in excess of the threshold for several animals”; the “eggs with IMI equivalents exceeding the CFR regulatory threshold of 20 ppb (20 ng/g)” value is 6 of 10. Further, the “gross lesions at post-mortem examination” value in the series on laying hens is “no gross lesions were observed”. The clinical signs entry in the series on birds (10 mg/kg IMI administration) is given as “moderate sedation occurred within minutes”. Besides, in the series on birds (birds given 1 mg/kg), the clinical signs result is “no outward clinical signs”. The LD50 with layers is recorded as 104.1 mg/kg. The “adjusted effective dose (ED50) for neurologic signs” value in the series on chickens was 11.2 mg/kg/day. Moreover, in series [5], the “time of absorption into the bloodstream” value is no more than 1 h and the “time of excretion in feces” value is on record as no more than 24 h. For the same molecule, the “residues in liver, pectoral muscle, brain and kidney” value in series [6] is reported as “detected”. Besides, the “presence in feces, liver, muscle, spleen” value in [3] (in vivo) was “detected”.
